Data from US7625895B2, “Diphenyl-dihydro-imidazopyridinones” (Hoffmann-Le Roche Inc., priority 2007, dated 2009).

target: interaction between p53 and MDM2 proteins (recombinant GST-tagged MDM2 / p53-peptide) (Homo sapiens, UniProt Q00987); assay: HTRF assay of inhibition of the p53-MDM2 interaction (GST-MDM2 binding to biotinylated p53 peptide); settings: 90 nM biotinylated p53 peptide, 160 ng/ml GST-MDM2, 37° C. 1 h
Protocol: The ability of the compounds to inhibit the interaction between p53 and MDM2 proteins was measured by an HTRF (homogeneous time-resolved fluorescence) assay in which recombinant GST-tagged MDM2 binds to a peptide that resembles the MDM2-interacting region of p53 (Lane et al.). Binding of GST-MDM2 protein and p53-peptide (biotinylated on its N-terminal end) is registered by the FRET (fluorescence resonance energy transfer) between Europium (Eu)-labeled anti-GST antibody and streptavidin-conjugated Allophycocyanin (APC).
Test is performed in black flat-bottom 384-well plates (Costar) in a total volume of […] containing: 90 nM biotinylated peptide, 160 ng/ml GST-MDM2, 20 nM streptavidin-APC (PerkinElmerWallac), 2 nM Eu-labeled anti-GST-antibody (PerkinElmerWallac) 0.2% bovine serum albumin (BSA), 1 mM dithiothreitol (DTT) and 20 mM […] (TBS) buffer as follows: Add 10 μL of GST-MDM2 (640 ng/ml working solution) in reaction buffer to each well. Add 10 μL diluted compounds (1:5 dilution in reaction buffer) to each well mix by shaking. Add 20 μL biotinylated p53 peptide (180 nM working solution) in reaction buffer to each well and mix on shaker. Incubate at 37° C. for 1 h. Add 20 μL streptavidin-APC and Eu-anti-GST antibody mixture (6 nM Eu-anti-GST and 60 nM streptavidin-APC working solution) in TBS buffer with 0.2% BSA, shake at room temperature for 30 minutes and read using a TRF-capable plate reader at 665 and 615 nm (Victor 5, Perkin ElmerWallac). If not specified, the reagents were purchased from Sigma Chemical Co.

interaction between p53 and MDM2 proteins (recombinant GST-tagged MDM2 / p53-peptide), sequence (Q00987 whole entry): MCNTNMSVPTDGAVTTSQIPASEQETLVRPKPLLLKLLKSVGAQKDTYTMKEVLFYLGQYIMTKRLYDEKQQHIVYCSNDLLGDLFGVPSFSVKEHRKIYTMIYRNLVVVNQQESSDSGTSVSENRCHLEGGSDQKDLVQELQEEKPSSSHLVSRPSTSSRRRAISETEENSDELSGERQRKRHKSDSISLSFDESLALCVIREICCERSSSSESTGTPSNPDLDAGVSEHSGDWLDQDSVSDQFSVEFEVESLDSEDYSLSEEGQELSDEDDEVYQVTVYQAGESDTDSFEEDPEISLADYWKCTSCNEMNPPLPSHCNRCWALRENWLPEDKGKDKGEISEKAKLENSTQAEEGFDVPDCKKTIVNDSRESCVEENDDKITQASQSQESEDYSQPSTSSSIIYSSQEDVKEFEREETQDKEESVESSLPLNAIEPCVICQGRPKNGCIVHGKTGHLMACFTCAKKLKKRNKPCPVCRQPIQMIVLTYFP

SMILES	IC50 [nM]
N#Cc1cc(S(=O)(=O)N2c3cccc(=O)n3[C@@H](c3ccc(Cl)cc3)[C@H]2c2ccc(Cl)cc2)ccc1F (single isomer, unassigned) [Example 85, 5-[(2R*,3S*)-2,3-Bis-(4-chloro-phenyl)-5-oxo-2,3-dihydro-5H-imidazo[1,2-a]pyridine-1-sulfonyl]-2-fluoro-benzonitrile]	220
COC(=O)c1cccc(S(=O)(=O)N2c3ccc(C(=O)N4CCN(CC(=O)N5CCOCC5)CC4)c(=O)n3[C@@H](c3ccc(Cl)cc3)[C@H]2c2ccc(Cl)cc2)c1 (racemic) [Example 62, rac-3-{cis-2,3-Bis-(4-chloro-phenyl)-6-[4-(2-morpholin-4-yl-2-oxo-ethyl)-piperazine-1-carbonyl]-5-oxo-2,3-dihydro-5H-imidazo[1,2-a]pyridine-1-sulfonyl}-benzoic acid methyl ester]	470
O=c1cccc2n1[C@@H](c1ccc(Cl)cc1)[C@@H](c1ccc(Cl)cc1)N2S(=O)(=O)c1ccsc1 (racemic) [Example 10, rac-cis-2,3-Bis-(4-chloro-phenyl)-1-(thiophene-3-sulfonyl)-2,3-dihydro-1H-imidazo[1,2-a]pyridin-5-one]	710
COC(=O)c1cccc(S(=O)(=O)N2c3ccc(C(=O)N4CCN(C)CC4)c(=O)n3[C@@H](c3ccc(Cl)cc3)[C@H]2c2ccc(Cl)cc2)c1 (racemic) [Example 63, rac-3-[cis-2,3-Bis-(4-chloro-phenyl)-6-(4-methyl-piperazine-1-carbonyl)-5-oxo-2,3-dihydro-5H-imidazo[1,2-a]pyridine-1-sulfonyl]-benzoic acid methyl ester]	460
O=C(O)c1cccc(S(=O)(=O)N2c3cccc(=O)n3[C@@H](c3ccc(Cl)cc3)[C@H]2c2ccc(Cl)cc2)c1 (racemic) [Example 82, rac-3-[cis-2,3-Bis-(4-chloro-phenyl)-5-oxo-2,3-dihydro-5H-imidazo[1,2-a]pyridine-1-sulfonyl]-benzoic acid]	770
N#Cc1cc(S(=O)(=O)N2c3cccc(=O)n3[C@@H](c3ccc(Cl)cc3)[C@H]2c2ccc(Cl)cc2)ccc1F (single isomer, unassigned) [Example 84, 5-[(2R*,3S*)-2,3-Bis-(4-chloro-phenyl)-5-oxo-2,3-dihydro-5H-imidazo[1,2-a]pyridine-1-sulfonyl]-2-fluoro-benzonitrile]	500
N#Cc1cccc(S(=O)(=O)N2c3ccc(C(=O)N4CCOCC4)c(=O)n3[C@@H](c3ccc(Cl)cc3)[C@H]2c2ccc(Cl)cc2)c1 (single isomer, unassigned) [Example 91, 3-[2R*,3S*-bis-(4-chloro-phenyl)-6-(morpholine-4-carbonyl)-5-oxo-2,3-dihydro-5H-imidazo[1,2-a]pyridine-1-sulfonyl]-benzonitrile]	1600

Next, values leading:

IC50 [nM]	SMILES
690	N#Cc1cccc(S(=O)(=O)N2c3ccc(C(=O)N4CCOCC4)c(=O)n3[C@H](c3ccc(Cl)cc3)[C@@H]2c2ccc(Cl)cc2)c1 (single isomer, unassigned) [Example 92, 3-[2R*,3S*-bis-(4-chloro-phenyl)-6-morpholine-4-carbonyl)-5-oxo-2,3-dihydro-5H-imidazo[1,2-a]pyridine-1-sulfonyl]-benzonitrile]
670	COC(=O)c1cccc(S(=O)(=O)N2c3ccc(C(=O)N4CCN(CCn5ccnc5)CC4)c(=O)n3[C@@H](c3ccc(Cl)cc3)[C@H]2c2ccc(Cl)cc2)c1 (racemic) [Example 66, rac-3-{cis-2,3-Bis-(4-chloro-phenyl)-6-[4-(2-imidazol-1-yl-ethyl)-piperazine-1-carbonyl]-5-oxo-2,3-dihydro-5H-imidazo[1,2-a]pyridine-1-sulfonyl}-benzoic acid methyl ester]
710	O=C(CN1CCN(C(=O)c2ccc3n(c2=O)[C@@H](c2ccc(Cl)cc2)[C@@H](c2ccc(Cl)cc2)N3S(=O)(=O)c2ccccc2F)CC1)N1CCOCC1 (racemic) [Example 51, rac-cis-2,3-Bis-(4-chloro-phenyl)-1-(2-fluoro-benzenesulfonyl)-6-[4-(2-morpholin-4-yl-2-oxo-ethyl)-piperazine-1-carbonyl]-2,3-dihydro-1H-imidazo[1,2-a]pyridin-5-one]
